The values below come from patent US10881656B2, “HIF inhibitors and use thereof” (The General Hospital Corporation, priority 2008, dated 2021).

pIC50: −log10 of the molar value.

Test [1] has as its target T1, IRP2 binding to Ferritin-L IRE (Homo sapiens, UniProt P48200).
T1 construct: when expressed in endogenous levels; endogenous in cells; host or cells: 786-O
In words: Electrophoretic mobility shift assay, Ferritin L IRE probe. As to conditions: 786-O lysates, EMSA. How it is done: EMSAs were performed as described previously (Fillebeen et al., 2003). Briefly, 50 μg lysate from 786-O cells treated with medium only, DMSO, or compounds were incubated with 25,000 cpm wild-type or mutant radiolabeled HIF-2a IRE probe for 20 minutes at room temperature before loading onto non-denaturing acrylamide gels. Supershifts were performed identically, save that 0.2 μg control, IRP1 or IRP2 antibodies were also added. Total protein content was estimated by Bradford Assay (BioRad, 500-0006), and even loading for all experiments was confirmed by Western blot for B-Actin.
Inventors discovered that compound 76 increased the residual amount of IRP1 bound to the HIF-2a IRE in hypoxia, although not to the same extent as that observed in normoxic cells. […] Lastly, to further investigate the involvement of IRP2 in HIF-2a IRE, the inventors compared side by side IRP2 binding to HIF-2a and Ferritin-L IRE in 786-O cells, in conditions of normoxia or hypoxia and after treatment with compound 76 or DFO (FIG. 7E). While IRP2 binding was clearly detected on Ferritin IRE, the inventors were not able to detect measurable IRP2 binding on HIF-2a IRE.

Test [2] has as its system HIF-2a (HRE-luciferase, 7H4 cells). In words: HRE-luciferase reporter assay in 786-O derived 7H4 cells. The class given is cell-based, human. Here is the method:
The screen for small molecule inhibitors was performed in the Institute for Chemical and Cellular biology, Harvard Medical School. 7SV or 7H4 cells were plated onto 384-well plates. The next day compounds were added robotically to the medium, to a final concentration of approximately 10 μM. 24 hours later, media was aspirated and Passive Lysis Buffer (Promega) and Luciferase Assay Reagent II (Promega) were added. Luciferase activity was measured with an Analyst plate reader (LJL Biosystems). All experiments were performed in duplicate and the identity of lead compounds was confirmed by mass spectroscopy
Luciferase assays were performed using the Promega's Dual-luciferase Assay Reporter System (Promega, E1910) according to the manufacturer's instructions. Counts obtained from transient transfections were normalized for co-transfected Renilla luciferase. Stable clones were normalized to medium only treated wells.
Functionally validated HRE and control SV40 luciferase reporter constructs were stably introduced into VHL-deficient 786-O cells to generate 7H4 and 7SV lines, respectively (see FIG. 8A). These lines were used to screen five commercial small molecule libraries (NCI Diversity Set, Chembridge, Maybridge, CEREP and Peakdale) and the ICCB Diversity-Oriented Synthesis (DOS) Diversity Set 2 (DDS2) and serine-derived peptidomimetic (SDP1) collections, totaling 58,000 compounds.
786-O cells were untreated (M, for medium only), mock-treated (D, for DMSO) or treated with compounds for two days before assaying for normalized luciferase activity. The resulting dose response curves are shown along with the compound structures in FIGS. 1A-1H).
To validate the connectivity map-derived prediction that PGJ2 is involved in HIF signaling, the inventors treated HRE-luciferase expressing 786-O cells (7H4) and SV40-luciferase expressing control cells (7SV) with increasing doses of PGJ2.

Another test deals with HIF-2a. In words: Western blot for HIF-2a protein expression. It is filed as cell-based, human. As to conditions: A498 and UMRC2 cells.
The next test deals with IRP1. In words: IRP1 expression in treated cells. The class given is cell-based, human. The text has this:
The inventors next tested the effect of hypoxia on the binding of IRP1 to the HIF-2a wild-type IRE. […] This is due to decreased mRNA binding, as western blots confirm that neither compound application nor hypoxia affects IRP1 protein expression. The involvement of IRP1 was further confirmed with super-shifting experiments with IRP1 antibody (FIG. 7C). No supershifted bands were observed using IRP2 antibody.
However, IRP2 contributes very little—if at all—to the total IRP bound to the HIF2a IRE (Zimmer et al., 2008).

The test system of another test is 786-O cells. In words: Global translation (35S loading control, polysome analysis). The class given is cell-based, human. How it is done: DMSO-, rapamycin- or PGJ2-treated 786-O cells were harvested from 10 cm plates for each polysomal analysis. Confluent cells were harvested and lysed in 300 μL ofRSB [10 mmol/L NaCl, 10 mmol/L Tris-HCl (pH 7.4), 15 mmol/L MgCl2] containing 100 μg/mL heparin, 1.2% Triton X-100, and 0.12% deoxycholate. Nuclei were pelleted for 3 min in a microcentrifuge at 4° C. The 300-μL extract was layered over 11.5 mL of a 15% to 45% (wt/wt) sucrose gradient with a 0.5-mL cushion of 45% sucrose. The gradients were centrifuged at 37,000 rpm for 2.5 h in an SW 41 (Beckman) rotor at 4° C. After centrifugation, the A260 was continuously monitored and recorded across the gradient using a Foxy Jr. Density Gradient fractionation system and UA-6 UV/VIS Detector (ISCO, Inc.).
To determine if PGJ2 decreases translation of the HIF2a message, the inventors evaluated the synthesis rate and stability of the newly synthesized HIF2a by an ^35S-methionine pulse chase experiment on PGJ2 or vehicle only DMSO treated 786-O cells. […] Loading control is 1/1000th of the cell lysate used in the respective immunoprecipitation directly loaded into an SDS-PAGE gel.

T1 sequence (P48200 whole entry): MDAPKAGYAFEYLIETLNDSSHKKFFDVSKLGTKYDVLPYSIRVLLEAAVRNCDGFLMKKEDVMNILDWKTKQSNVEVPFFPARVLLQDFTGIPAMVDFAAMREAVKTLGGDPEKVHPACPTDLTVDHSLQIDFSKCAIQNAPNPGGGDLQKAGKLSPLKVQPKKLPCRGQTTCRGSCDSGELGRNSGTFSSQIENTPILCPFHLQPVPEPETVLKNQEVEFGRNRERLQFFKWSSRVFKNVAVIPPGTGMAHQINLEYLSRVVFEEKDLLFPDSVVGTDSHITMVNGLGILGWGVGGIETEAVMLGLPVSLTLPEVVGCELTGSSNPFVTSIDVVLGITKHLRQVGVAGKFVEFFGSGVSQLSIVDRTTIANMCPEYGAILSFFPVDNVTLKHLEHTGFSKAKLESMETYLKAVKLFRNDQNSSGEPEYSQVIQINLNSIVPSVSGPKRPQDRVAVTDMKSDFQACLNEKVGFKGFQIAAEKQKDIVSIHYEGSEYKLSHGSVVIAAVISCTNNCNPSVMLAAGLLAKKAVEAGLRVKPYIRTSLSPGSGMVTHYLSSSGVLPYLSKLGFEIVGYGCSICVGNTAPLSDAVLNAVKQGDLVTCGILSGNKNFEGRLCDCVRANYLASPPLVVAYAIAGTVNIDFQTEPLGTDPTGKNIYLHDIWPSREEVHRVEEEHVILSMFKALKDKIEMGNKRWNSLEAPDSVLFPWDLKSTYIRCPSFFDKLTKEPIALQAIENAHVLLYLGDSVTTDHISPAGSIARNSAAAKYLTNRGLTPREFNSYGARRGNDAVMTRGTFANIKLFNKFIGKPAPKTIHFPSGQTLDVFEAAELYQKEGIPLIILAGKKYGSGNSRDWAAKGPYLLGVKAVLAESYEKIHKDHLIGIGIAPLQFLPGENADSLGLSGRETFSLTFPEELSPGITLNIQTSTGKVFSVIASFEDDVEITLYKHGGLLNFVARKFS

On to `COC(=O)c1sccc1N/N=C(/C#N)S(C)(=O)=O` [Compound 76, methyl 3-{2-[cyano(methylsulfonyl)methylene] hydrazino}thiophene-2-carboxylate], for which the “binding of IRP2 to Ferritin-L IRE” value in test [1] was “slightly enhanced”.

`CCCCC/C=C/C=C1/C(=O)C=C[C@@H]1C/C=C\CCCC(=O)O` [PGJ2, 15-deoxy-Δ^12,14-prostaglandin J2]: the pIC50 in test [2] (7H4 cells, luciferase measured at 48 hours, read-out: IC50app, HRE-driven luciferase activity) is 5.30. The “HIF2a activity at various ambient oxygen concentrations” value in test [2] (HRE-luciferase 786-O cells, 48 hours) is on record as “has the ability to repress HIF2a activity at a wide range of oxygen concentrations”. Besides, in the test on HIF-2a, the “HIF2a protein expression in other VHL-deficient renal cell carcinoma lines” value is reported as “decreased HIF2a protein expression”. Besides, the IRP1 expression entry in the test with IRP1 is “not affected”. The “global cellular translation (35S-methionine loading control)” value in the test on 786-O cells (10 μM) is recorded as “does not globally decrease cellular translation”. In addition, the “ribosomes actively engaged in translation (polysome analysis)” value in the test with 786-O cells (24 hours) is on record as “little effect on the number of ribosomes actively engaged in translation”.
